Laboratory results: patent publication US10828379B2, “In vivo differentiation of relative oxygen levels and tumor necrosis using divalent europium” (WAYNE STATE UNIVERSITY, priority 2015, dated 2020)

Legend:
[1] = In vivo T1-weighted MRI after intravenous, intraperitoneal and subcutaneous injection; design: species or system mouse; conditions: liver, kidneys, bladder; equivalent dose for Gd control
Procedure: To test our hypothesis regarding the in vivo response of Eu^II-222, we acquired T1-weighted images of mice after administering Eu^II-222 (0.1 mL, 4 mM, europium dose of 3 mg/kg) through intravenous, intraperitoneal, and subcutaneous injections (FIG. 8). Mice were imaged prior to injection and at 3 and 8 min to compare responses with the three injection types. […] Although this observation is inconsistent with the low oxygen content of venous blood (relative to the peritoneal cavity), the circulation time of blood in a mouse is approximately 8 s (38). […] Therefore, the exchange between venous and arterial blood during circulation can explain our observations.
Studies in animals were carried out with the assistance of the Animal Model and Therapeutics Evaluation Core of the Barbara Ann Karmanos Cancer Institute after approval from the Wayne State University Institutional Animal Care and Use Committee. MRI scans were performed in the Elliman Clinical Research Building at Wayne State University with a 7 T Bruker Clinscan small animal MRI scanner equipped with a 30 cm bore. […]
For intravenous injections, mice were catheterized before being anesthetized with isoflurane. […] A correction volume (0.08 mL) was added to the calculated dose volumes for intravenous injections to account for the volume of the phosphate-buffered saline within the catheter. […]

[2] = system: 4T1 mammary carcinoma; assay: In vivo T1-weighted MRI after intratumoral injection, with histological staining; design: species or system mouse; conditions: bladder, liver, kidneys; Gd control 50 μL, 20.5 mM
Procedure: To test whether Eu^II-222Fb would enhance contrast in necrotic tissue, we performed T1-weighted MRI before and after intratumoral injection of Eu^II-222Fb (50 μL, 19.4 mM) into a 4T1 mammary carcinoma. The 4T1 carcinoma model is an aggressive tumor that typically develops a necrotic core,^[10] and imaging was performed when tumors reached approximately 700-1000 mg to maximize the probability of necrosis. Images were acquired before and at 3, 20, and 120 min after intratumoral injection (FIG. 3A-D). […]
To better understand the potential mechanism of differentiation, we performed an intratumoral injection of Eu^II-222Fb (50 μL, 6.9 mM) and monitored contrast enhancement over the course of 3 h before sacrificing the mouse and removing the injected tumor for analysis of Eu content by inductively coupled plasma mass spectrometry. […]
Studies in animals were carried out with the assistance of the Animal Model and Therapeutics Evaluation Core of the Barbara Ann Karmanos Cancer Institute after approval from the Wayne State University Institutional Animal Care and Use Committee. […] Animals were pooled, implanted bilaterally subcutaneously with 30-60 mg tumor fragments with a 12 gauge trocar, and imaged when tumors reached approximately 700-1000 mg in size (determined by caliper measurements: tumor mass (mg)≈[tumor length (mm)×tumor width^2 (mm^2)]/2). […]

Row | Compound | contrast enhancement in organs associated with clearance after intravenous injection [1] | contrast enhancement in organs associated with clearance after intratumoral injection [2]
1 | O=C([O-])CN(CCN(CC(=O)[O-])CC(=O)[O-])CCN(CC(=O)[O-])CC(=O)[O-].[Gd+3] [Gd^III-diethylenetriaminepentaacetate] | positive contrast enhancement was observed in the kidneys within 3 min | –
2 | Gd^III-1,4,7,10-tetraazacyclododecane-1,4,7,10-tetraacetate | – | bright with contrast within minutes of the injection
